# Entries after “also recorded” stand apart in the source; their conditions may differ.
# Test system: Japanese patients with R/R iNHL
# Test: Phase 1 dose-escalation study: safety and tolerability (TEAEs, DLTs)
# Assay type: in vivo
# Text: Japanese patients aged ≥ 20 years with R/R iNHL histologically confirmed as FL, nodal MZL, extra-nodal MZL of mucosa-associated lymphoid tissue, small lymphocytic lymphoma, lymphoplasmacytic lymphoma, Waldenström’s macroglobulinemia, or equivalent, according to World Health Organization classification, were eligible for this study. Other key eligibility criteria included being PI3K inhibitor therapy-naïve and an Eastern Cooperative Oncology Group performance status of 0 or 1. Further details of inclusion and exclusion criteria are provided in Supplementary Table 1.
# This was a multicenter, open-label, dose-escalation, phase 1 study in Japan. All patients received oral zandelisib once daily at the same time each day, at least 1 h before or 2 h after a meal (CS: continuous schedule). Each treatment cycle was 28 days. Definitions of the DLTs described in this study can be found in Supplementary Table 2. The observation period for DLTs was from day 1 of Cycle 1 to day 1 of Cycle 2. Zandelisib was administered until disease progression or unacceptable toxicity. In the event of an AE, patients could be switched to IDT. In the case of disease progression while receiving IDT, patients could be switched back to CS per the investigator’s discretion.
# A starting dose of 45 mg was set for investigating patient safety. This study adopted a standard 3 + 3 design. […] If DLTs occurred in 2 or more patients, the study was planned to be suspended pending a safety evaluation. If a DLT occurred in 1 patient, 3 further patients were added to cohort 1. If DLTs occurred in 0/3 or 1/6 patients in cohort 1, dosing in cohort 2 commenced (n = 6; 60 mg/day). If the incidence of DLTs in cohort 2 was ≤ 1/6, the maximum tolerated dose was not determined, and the dose in cohort 2 was to be selected as the recommended Japanese phase 2 dose.
# The primary endpoint was the safety [number of patients with treatment-emergent adverse events (TEAEs), based on Common Terminology Criteria for Adverse Events version 5.0] and tolerability (including laboratory values, vital signs, and electrocardiogram performance) of zandelisib in Japanese patients. Hepatobiliary disorder, aspartate/alanine (AST/ALT) increased, diarrhea/colitis, organizing pneumonia, stomatitis, or rash were defined as irAEs in this manuscript. Secondary endpoints included PK (plasma concentrations and PK parameters) and the efficacy of zandelisib. […] The PK parameters for Cycle 1 day 1 and Cycle 2 day 1 were calculated for each patient by non-compartmental analysis. PK parameters included maximum plasma drug concentration (Cmax), area under the plasma concentration–time curve (AUC) from time zero to the last measurable point (AUC0–t), the AUC from time zero to infinity (AUC0-inf), and terminal half-life (t1/2).
smiles,measurement,setting,value
CN1CCC(c2ccccc2CC(C)(C)Nc2nc(N3CCOCC3)nc(-n3c(C(F)F)nc4ccccc43)n2)CC1 [zandelisib],"TEAE Infections and infestations (SOC), All grades","60 mg, n = 6",4 (66.7) n (%)
same,"TEAE Infections and infestations (SOC), Grade ≥ 3","60 mg, n = 6",0 n (%)
same,"TEAE Infusion site extravasation, All grades","60 mg, n = 6",0 n (%)
same,"TEAE Infusion site extravasation, Grade ≥ 3","60 mg, n = 6",0 n (%)
same,"TEAE Insomnia, All grades","60 mg, n = 6",0 n (%)
same,"TEAE Insomnia, Grade ≥ 3","60 mg, n = 6",0 n (%)
same,"TEAE Investigations (SOC), All grades","60 mg, n = 6",6 (100.0) n (%)
same,"TEAE Investigations (SOC), Grade ≥ 3","60 mg, n = 6",4 (66.7) n (%)
same,"TEAE Joint effusion, All grades","60 mg, n = 6",0 n (%)
same,"TEAE Joint effusion, Grade ≥ 3","60 mg, n = 6",0 n (%)
same,"TEAE Lymphocyte count decreased, All grades","60 mg, n = 6",1 (16.7) n (%)
same,"TEAE Lymphocyte count decreased, Grade ≥ 3","60 mg, n = 6",0 n (%)
same,"TEAE Metabolism and nutrition disorders (SOC), All grades","60 mg, n = 6",0 n (%)
same,"TEAE Metabolism and nutrition disorders (SOC), Grade ≥ 3","60 mg, n = 6",0 n (%)
same,"TEAE Muscle spasms, All grades","60 mg, n = 6",0 n (%)
same,"TEAE Muscle spasms, Grade ≥ 3","60 mg, n = 6",0 n (%)
same,"TEAE Musculoskeletal and connective tissue disorders (SOC), All grades","60 mg, n = 6",2 (33.3) n (%)
same,"TEAE Musculoskeletal and connective tissue disorders (SOC), Grade ≥ 3","60 mg, n = 6",0 n (%)
same,"TEAE Nasopharyngitis, All grades","60 mg, n = 6",3 (50.0) n (%)
same,"TEAE Nasopharyngitis, Grade ≥ 3","60 mg, n = 6",0 n (%)
same,"TEAE Nausea, All grades","60 mg, n = 6",2 (33.3) n (%)
same,"TEAE Nausea, Grade ≥ 3","60 mg, n = 6",0 n (%)
same,"TEAE Nervous system disorders (SOC), All grades","60 mg, n = 6",0 n (%)
same,"TEAE Nervous system disorders (SOC), Grade ≥ 3","60 mg, n = 6",0 n (%)
same,"TEAE Neutrophil count decreased, All grades","60 mg, n = 6",6 (100.0) n (%)
same,"TEAE Neutrophil count decreased, Grade ≥ 3","60 mg, n = 6",4 (66.7) n (%)
same,"TEAE Oral herpes, All grades","60 mg, n = 6",0 n (%)
same,"TEAE Oral herpes, Grade ≥ 3","60 mg, n = 6",0 n (%)
same,"TEAE Organizing pneumonia, All grades","60 mg, n = 6",0 n (%)
same,"TEAE Organizing pneumonia, Grade ≥ 3","60 mg, n = 6",0 n (%)
same,"TEAE Oropharyngeal pain, All grades","60 mg, n = 6",2 (33.3) n (%)
same,"TEAE Oropharyngeal pain, Grade ≥ 3","60 mg, n = 6",0 n (%)
same,"TEAE Pancreatitis, All grades","60 mg, n = 6",0 n (%)
same,"TEAE Pancreatitis, Grade ≥ 3","60 mg, n = 6",0 n (%)
same,"TEAE Pharyngeal paresthesia, All grades","60 mg, n = 6",1 (16.7) n (%)
same,"TEAE Pharyngeal paresthesia, Grade ≥ 3","60 mg, n = 6",0 n (%)
same,"TEAE Pruritus, All grades","60 mg, n = 6",1 (16.7) n (%)
same,"TEAE Pruritus, Grade ≥ 3","60 mg, n = 6",0 n (%)
same,"TEAE Psychiatric disorders (SOC), All grades","60 mg, n = 6",0 n (%)
same,"TEAE Psychiatric disorders (SOC), Grade ≥ 3","60 mg, n = 6",0 n (%)
same,"TEAE Rash maculopapular, All grades","60 mg, n = 6",4 (66.7) n (%)
same,"TEAE Rash maculopapular, Grade ≥ 3","60 mg, n = 6",1 (16.7) n (%)
same,"TEAE Rash, All grades","60 mg, n = 6",3 (50.0) n (%)
same,"TEAE Rash, Grade ≥ 3","60 mg, n = 6",0 n (%)
same,"TEAE Renal and urinary disorders (SOC), All grades","60 mg, n = 6",0 n (%)
same,"TEAE Renal and urinary disorders (SOC), Grade ≥ 3","60 mg, n = 6",0 n (%)
same,"TEAE Renal impairment, All grades","60 mg, n = 6",0 n (%)
same,"TEAE Renal impairment, Grade ≥ 3","60 mg, n = 6",0 n (%)
same,"TEAE Respiratory, thoracic, and mediastinal disorders (SOC), All grades","60 mg, n = 6",3 (50.0) n (%)
same,"TEAE Respiratory, thoracic, and mediastinal disorders (SOC), Grade ≥ 3","60 mg, n = 6",0 n (%)
same,"TEAE Skin and subcutaneous tissue disorders (SOC), All grades","60 mg, n = 6",6 (100.0) n (%)
same,"TEAE Skin and subcutaneous tissue disorders (SOC), Grade ≥ 3","60 mg, n = 6",1 (16.7) n (%)
same,"TEAE Stomatitis, All grades","60 mg, n = 6",1 (16.7) n (%)
same,"TEAE Stomatitis, Grade ≥ 3","60 mg, n = 6",0 n (%)
same,"TEAE Subcutaneous abscess, All grades","60 mg, n = 6",1 (16.7) n (%)
same,"TEAE Subcutaneous abscess, Grade ≥ 3","60 mg, n = 6",0 n (%)
same,"TEAE Tinnitus, All grades","60 mg, n = 6",0 n (%)
same,"TEAE Tinnitus, Grade ≥ 3","60 mg, n = 6",0 n (%)
same,"TEAE Urticaria, All grades","60 mg, n = 6",0 n (%)
same,"TEAE Urticaria, Grade ≥ 3","60 mg, n = 6",0 n (%)
same,"TEAE Vomiting, All grades","60 mg, n = 6",2 (33.3) n (%)
same,"TEAE Vomiting, Grade ≥ 3","60 mg, n = 6",0 n (%)
same,"TEAE WBC count decreased, All grades","60 mg, n = 6",2 (33.3) n (%)
same,"TEAE WBC count decreased, Grade ≥ 3","60 mg, n = 6",0 n (%)
same,maximum tolerated dose (MTD),45 and 60 mg/day,not reached
same,dose-limiting toxicities (DLTs),"45 and 60 mg/day, N = 9",No dose-limiting toxicities were observed; also recorded: No DLTs were reported; also recorded: no DLTs or fatal events were observed
same,recommended phase 2 dose (RP2D),Japanese patients,60 mg/day
same,Grade 3 irAEs,N = 9,7 patients
same,Grade ≤ 3 irAEs,N = 9,All patients experienced Grade ≤ 3 irAEs
same,Grade ≥ 3 diarrhea,N = 9,33.3%
same,Grade ≥ 3 neutrophil count decreased,N = 9,55.6%
same,discontinued due to SAEs,N = 9,3 patients
same,dosing interrupted due to irAEs,N = 9,7 patients
same,dosing interrupted due to neutrophil count decreased,N = 9,1 patients
same,incidence of TEAEs ≥ Grade 3,N = 9,77.8%
same,number of serious AEs (SAEs),N = 9,6
same,zandelisib discontinuation due to immune-related toxicities,N = 9,4 patients
same,patients with serious AEs (SAEs),"N = 9, all Grade 3, treatment related",44.4%
same,incidence of TEAEs in all patients,"N = 9, all grades",100%
same,"TEAE ALT increased, All grades","Total, N = 9",3 (33.3) n (%)
same,"TEAE ALT increased, Grade ≥ 3","Total, N = 9",0 n (%)
same,"TEAE AST increased, All grades","Total, N = 9",5 (55.6) n (%)
same,"TEAE AST increased, Grade ≥ 3","Total, N = 9",0 n (%)
same,"TEAE Abdominal discomfort, All grades","Total, N = 9",1 (11.1) n (%)
same,"TEAE Abdominal discomfort, Grade ≥ 3","Total, N = 9",0 n (%)
same,"TEAE Abdominal pain upper, All grades","Total, N = 9",1 (11.1) n (%)
same,"TEAE Abdominal pain upper, Grade ≥ 3","Total, N = 9",0 n (%)
same,"TEAE Amylase increased, All grades","Total, N = 9",1 (11.1) n (%)
same,"TEAE Amylase increased, Grade ≥ 3","Total, N = 9",0 n (%)
same,"TEAE Anemia, All grades","Total, N = 9",1 (11.1) n (%)
same,"TEAE Anemia, Grade ≥ 3","Total, N = 9",0 n (%)
same,"TEAE Arthralgia, All grades","Total, N = 9",2 (22.2) n (%)
same,"TEAE Arthralgia, Grade ≥ 3","Total, N = 9",0 n (%)
same,"TEAE Back pain, All grades","Total, N = 9",1 (11.1) n (%)
same,"TEAE Back pain, Grade ≥ 3","Total, N = 9",0 n (%)
same,"TEAE Blepharitis, All grades","Total, N = 9",1 (11.1) n (%)
same,"TEAE Blepharitis, Grade ≥ 3","Total, N = 9",0 n (%)
same,"TEAE Blood and lymphatic system disorders (SOC), All grades","Total, N = 9",1 (11.1) n (%)
same,"TEAE Blood and lymphatic system disorders (SOC), Grade ≥ 3","Total, N = 9",0 n (%)
same,"TEAE Blood creatinine increased, All grades","Total, N = 9",1 (11.1) n (%)
same,"TEAE Blood creatinine increased, Grade ≥ 3","Total, N = 9",0 n (%)
same,"TEAE Bradycardia, All grades","Total, N = 9",1 (11.1) n (%)
same,"TEAE Bradycardia, Grade ≥ 3","Total, N = 9",0 n (%)
same,"TEAE CMV test positive, All grades","Total, N = 9",3 (33.3) n (%)
same,"TEAE CMV test positive, Grade ≥ 3","Total, N = 9",0 n (%)
same,"TEAE Cardiac disorders (SOC), All grades","Total, N = 9",1 (11.1) n (%)
same,"TEAE Cardiac disorders (SOC), Grade ≥ 3","Total, N = 9",0 n (%)
same,"TEAE Conjunctivitis, All grades","Total, N = 9",2 (22.2) n (%)
same,"TEAE Conjunctivitis, Grade ≥ 3","Total, N = 9",0 n (%)
same,"TEAE Constipation, All grades","Total, N = 9",4 (44.4) n (%)
same,"TEAE Constipation, Grade ≥ 3","Total, N = 9",0 n (%)
same,"TEAE Cough, All grades","Total, N = 9",1 (11.1) n (%)
same,"TEAE Cough, Grade ≥ 3","Total, N = 9",0 n (%)
same,"TEAE Cytomegalovirus infection, All grades","Total, N = 9",1 (11.1) n (%)
same,"TEAE Cytomegalovirus infection, Grade ≥ 3","Total, N = 9",0 n (%)
same,"TEAE Cytomegalovirus viremia, All grades","Total, N = 9",1 (11.1) n (%)
